Data reported in publication PMC9823632, “Nitrogen Acquisition and Transport in the Ectomycorrhizal Symbiosis—Insights from the Interaction between an Oak Tree and Pisolithus tinctorius” (Plants, 2022).

What was measured:
QsAMT3.2-like (QsAMT3.2) = target: T1, QsAMT3.2-like (QsAMT3.2) (Quercus suber, UniProt Z9KUH6IWZ3); experiment: […]-methylammonium uptake in transformed yeast, Michaelis-Menten and Lineweaver-Burk; type: cell-based; details: labelled compound; yeast 31019b; substrate of the Km taken from the methods; read-out: apparent Km
T1 construct: full-length cDNA from ectomycorrhizal cork oak roots in pDR196, expressed in yeast strain 31019b (mep1 mep2 mep3 deleted)
T1 sequence (Z9KUH6IWZ3 1-486): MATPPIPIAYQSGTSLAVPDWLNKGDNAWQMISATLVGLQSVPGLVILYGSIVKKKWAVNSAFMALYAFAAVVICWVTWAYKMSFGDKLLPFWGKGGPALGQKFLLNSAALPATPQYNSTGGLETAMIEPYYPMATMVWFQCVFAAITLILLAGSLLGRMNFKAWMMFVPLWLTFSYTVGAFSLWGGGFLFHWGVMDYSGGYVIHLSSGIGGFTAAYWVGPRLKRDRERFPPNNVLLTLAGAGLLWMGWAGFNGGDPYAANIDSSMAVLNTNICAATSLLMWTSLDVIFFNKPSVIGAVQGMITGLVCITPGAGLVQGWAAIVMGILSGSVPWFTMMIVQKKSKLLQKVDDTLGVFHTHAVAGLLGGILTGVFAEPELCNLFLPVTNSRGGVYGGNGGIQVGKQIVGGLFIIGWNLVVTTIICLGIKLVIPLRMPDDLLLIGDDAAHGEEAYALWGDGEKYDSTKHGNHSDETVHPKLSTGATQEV

QsAMT1.2-like (QsAMT1.2) = target: T2, QsAMT1.2-like (QsAMT1.2) (Quercus suber, UniProt Z9N9G6J3T1); experiment: as above; type: cell-based; details: labelled compound; yeast 31019b; substrate of the Km taken from the methods; read-out: apparent Km
T2 construct: full-length cDNA from ectomycorrhizal cork oak roots in pDR196, expressed in yeast strain 31019b (mep1 mep2 mep3 deleted)
T2 sequence (Z9N9G6J3T1 1-510): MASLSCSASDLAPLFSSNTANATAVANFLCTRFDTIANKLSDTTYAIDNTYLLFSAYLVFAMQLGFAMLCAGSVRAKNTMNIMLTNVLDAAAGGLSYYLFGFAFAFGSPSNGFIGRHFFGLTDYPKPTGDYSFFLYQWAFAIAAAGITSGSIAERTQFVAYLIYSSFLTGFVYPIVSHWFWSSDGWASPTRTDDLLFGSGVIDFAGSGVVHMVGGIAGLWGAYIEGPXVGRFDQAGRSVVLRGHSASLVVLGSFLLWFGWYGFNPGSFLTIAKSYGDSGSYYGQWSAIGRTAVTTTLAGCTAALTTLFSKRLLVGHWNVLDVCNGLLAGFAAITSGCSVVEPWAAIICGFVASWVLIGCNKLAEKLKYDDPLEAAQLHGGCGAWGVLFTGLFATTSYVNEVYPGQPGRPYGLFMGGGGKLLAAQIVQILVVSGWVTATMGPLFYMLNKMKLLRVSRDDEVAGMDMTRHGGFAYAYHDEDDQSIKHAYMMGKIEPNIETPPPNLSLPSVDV

`CN` [[14C]-methylammonium] was tested. Which Km (QsAMT3.2-like (QsAMT3.2)) did it give?
The Km was 0.6 µM.

And the Km (QsAMT1.2-like (QsAMT1.2))?
The Km was 667 µM.
